Reference: patent publication US5346828A, “Stereoisomeric enrichment of 2-amino-3-hydroxy-3-phenylpropionic acids using d-threonine aldolase” (Celgene Corporation, priority 1992, dated 1994)

Test: incubation of substrate in the same buffer without enzyme (Enzyme 0), HPLC
Type: physicochemical
Method: D,L-Threo 2-amino-2-methyl-3-hydroxy-3-phenylpropionic acid (14.1 mM) is incubated at pH 8.75 in 50 mM borate buffer and 0.8 mM pyridoxal phosphate with ruptured cells containing approximately 300 μL of enzyme.
At time intervals of approximately 30, 120 and 210 minutes, 200 μL of the incubation mixture are removed and diluted with 800 μL of 1% perchloric acid. After centrifugation of this mixture, the supernatant is analyzed on HPLC.

Percentage of total area attributable to benzaldehyde and benzoic acid (30 min.): 0% | Percentage of total area attributable to benzaldehyde and benzoic acid (120 min.): 2.2% | Percentage of total area attributable to benzaldehyde and benzoic acid (210 min.): 3.7%
Structure (SMILES): N[C@H](C(=O)O)[C@H](O)c1ccccc1 (relative stereo) [t.phi.S, 2amino-3-hydroxy-3-phenylpropionic acid]
